Patent US11739350B2 (priority 2018, dated 2023)

Key:
[1] = test system: 786-0
[2] = test system: BxPC3
[3] = test system: 4T1
[4] = test system: patient-derived pancreatic cancer cell line (Patient 25)
[5] = test system: 786-0 cells
[6] = test system: BXPC3 cells
[7] = test system: Patient 25

## GSK126
[1]
  Cell viability (%) relative to mock vehicle-treated cells (title: GSK126-induced cytotoxicity (%)): 111.99%
[2]
  Cell viability (%) relative to mock vehicle-treated cells (title: GSK126-induced cytotoxicity (%)): 96.07%
[3]
  Cell viability (%) relative to mock vehicle-treated cells (title: GSK126-induced cytotoxicity (%)): 113.57%
[4]
  Cell viability (%) relative to mock vehicle-treated cells (title: GSK126-induced cytotoxicity (%)): 80.82%
[5]
  Cell viability as a percentage of control (cells treated with mock EVs and vehicle control): 98.35 percentage of control
[6]
  Cell viability as a percentage of control (cells treated with mock EVs and vehicle control): 90.78 percentage of control
[7]
  Cell viability as a percentage of control (cells treated with mock EVs and vehicle control): 64.14 percentage of control
